The test concerns Human neonate-derived fibroblasts. In words: Collagen synthesis-promoting activity on human fibroblasts (3H-glycine incorporation). It is filed as cell-based. To be noted: 300 μmol/l. The method, then: 201-271, Kodansha Scientific (1986).
Human neonate-derived fibroblasts (Sanko Junyaku Co., Ltd.) were suspended in DMEM containing 10% fetal bovine serum [Virology, 8, 396 (1959)] and cultured at 37° C. in 5% CO2 to the stationary phase. To the resulting culture were added ^3H-labeled glycine and a test substance, followed by further culturing for 72 hours. After 500 μmol/l phenylmethanesulfonyl fluoride (PMSF) was added to the obtained culture, the cells and the medium were collected, followed by disruption with a sonicator to extract proteins. To the extract were added 100 μmol/l bovine serum albumin (BSA) and 10% trichloroacetic acid (TCA), and the resulting mixture was centrifuged at 3000 rpm for 5 minutes to collect the precipitate. […]
After the reaction mixture was separated by ultrafiltration (molecular weight: 10,000), the radioactivity of the protein fraction in the filtrate (CDP) was measured as the amount of newly synthesized collagen. Then, the radioactivity of the protein fraction which was not filtered (NCDP) was measured, and the collagen synthesis ratio was calculated according to equation 2. The relative collagen synthesis-promoting activity (the change in collagen synthesis) was calculated according to equation 3 as the relative value of the collagen synthesis ratio in the presence of a test substance based on the control. […]

As for `Oc1cc(O)c2c(c1)O[C@H](c1ccc(O)c(O)c1)[C@H](O)[C@H]2c1c(O)cc(O)c2c1O[C@H](c1ccc(O)c(O)c1)[C@H](O)C2` [PB2, procyanidin B-2 [epicatechin-(4β→8)-epicatechin]], the “Amount of collagen synthesized compared with control (in words)” value was “increased”.

The record behind these values is patent US20030211183A1, “Skin-improving agent” (Kyowa Hakko Kogyo Co., Ltd., priority 1999, published 2003).
